Results published in patent publication US7629332B2, “Nitrophenyl mustard and nitrophenylaziridine alcohols and their corresponding phosphates and their use as targeted cytotoxic agents” (Auckland Uniservices Limited, priority 2003, dated 2009).
pIC50: −log10 of the molar value.

What was measured:
A549 (P450R+ve) = assay: Cell proliferation (sulphorhodamine B) IC50, P450R-transfected A549 human lung cells, anoxia vs 20% O2; format: cell-based; conditions: for A549 (P450R+ve) 20% O2/anoxia IC50 Ratio: 4 h, sensitivity ratio for hypoxia; for pIC50: 4 h drug exposure under 0% oxygen
WiDr (NTR+ve) = assay: Cell proliferation (sulphorhodamine B) IC50, NTR-transfected WiDr human colon cells; format: cell-based; conditions: for WiDr WT:NTR IC50 Ratio: 4 h, sensitivity ratio for NTR expression; for pIC50: 4 h drug exposure, growth 5 further days
[1] = test system: SiHa human tumour xenografts; assay: SiHa xenograft excision / clonogenic assay, with or without 15 Gy radiation; format: in vivo; conditions: for Log kill, cmpd after radiation: single i.p. dose 5 min after 15 Gy, relative to radiation only; for Log kill, cmpd only, Mean ± sem: single i.p. dose, no radiation, relative to vehicle controls, excision 18 h; for Activity against hypoxic cells: 20% of respective MTDs, after radiation
in vivo = conditions: CD-1 nude, mouse, ip

## 2 [(2-Bromoethyl)-5-[[(3-Hydroxypropyl)Amino]Carbonyl]-2,4-Dinitroanilino]Ethyl Methanesulfonate [IIa-13]
A549 (P450R+ve)
  A549 (P450R+ve) 20% O2/anoxia IC50 Ratio: 18
  pIC50: 4.49
WiDr (NTR+ve)
  WiDr WT:NTR IC50 Ratio: 90
  pIC50: 5.30

## 2-((2-Bromoethyl)-2-{[(2-Hydroxyethyl)Amino]Carbonyl}-4,6-Dinitroanilino)Ethyl Methanesulfonate [IIb-12]
A549 (P450R+ve)
  A549 (P450R+ve) 20% O2/anoxia IC50 Ratio: 133
  pIC50: 6.55
WiDr (NTR+ve)
  WiDr WT:NTR IC50 Ratio: 48
  pIC50: 6.40

## 2-((2-Bromoethyl)-2-{[(2-Hydroxypropyl)Amino]Carbonyl}-4,6-Dinitroanilino)Ethyl Methanesulfonate [IIb-13]
A549 (P450R+ve)
  A549 (P450R+ve) 20% O2/anoxia IC50 Ratio: 138
  pIC50: 6.82
WiDr (NTR+ve)
  WiDr WT:NTR IC50 Ratio: 27
  pIC50: 6.52

## 2-((2-Bromoethyl)-3-{[(2-Hydroxyethyl)Amino]carbonyl}-2,4-Dinitroanilino)Ethyl Methanesulfonate [IIc-12]
A549 (P450R+ve)
  A549 (P450R+ve) 20% O2/anoxia IC50 Ratio: 173
  pIC50: 5.59
WiDr (NTR+ve)
  WiDr WT:NTR IC50 Ratio: 84
  pIC50: 5.30

## 2-((2-Bromoethyl)-3-{[(3-Hydroxypropyl)Amino]Carbonyl}-2,4-Dinitroanilino)Ethyl Methanesulfonate [IIc-13]
A549 (P450R+ve)
  A549 (P450R+ve) 20% O2/anoxia IC50 Ratio: 134
  pIC50: 5.35
WiDr (NTR+ve)
  WiDr WT:NTR IC50 Ratio: 95
  pIC50: 5.37

## 2-((2-Bromoethyl)-3-{[(4-Hydroxybutyl)Amino]Carbonyl}-2,4-Dinitroanilino)Ethyl Methanesulfonate [IIc-14]
A549 (P450R+ve)
  A549 (P450R+ve) 20% O2/anoxia IC50 Ratio: 57
  pIC50: 5.15
WiDr (NTR+ve)
  WiDr WT:NTR IC50 Ratio: 16
  pIC50: 4.70

## 2-((2-Iodoethyl)-2-{[(2-Hydroxyethyl)Amino]Carbonyl}-4,6-Dinitroanilino)Ethyl Methanesulfonate [IIb-15]
A549 (P450R+ve)
  A549 (P450R+ve) 20% O2/anoxia IC50 Ratio: 118
  pIC50: 6.55
WiDr (NTR+ve)
  WiDr WT:NTR IC50 Ratio: 31
  pIC50: 6.52

## 2-[(2-Bromoethyl)-2,4-Dinitro-3-[[[2-(Phosphonooxy)Ethyl]Amino]-Carbonyl]Anilino]Ethyl Methanesulfonate [Ic-12P]
[1]; 20% of MTD
  Log kill, cmpd after radiation: 2.03 ± 0.25
[1]; 75% of MTD
  Log kill, cmpd after radiation: ≧2.96 ± 0.31
  Log kill, cmpd only, Mean ± sem: 1.04 ± 0.29

## 2-[(2-Bromoethyl)-2,4-Dinitro-3-[[[3-(Phosphonooxy)Propyl]Amino]-Carbonyl]Anilino]Ethyl Methanesulfonate [Ic-13P]
[1]; 20% of MTD
  Log kill, cmpd after radiation: 1.60 ± 0.20
[1]; 75% of MTD
  Log kill, cmpd after radiation: ≧3.23 ± 0.08
  Log kill, cmpd only, Mean ± sem: 2.36 ± 0.28

## 2-[(2-Bromoethyl)-2,4-Dinitro-6-[[[2-(Phosphonooxy)Ethyl]Amino]-Carbonyl]Anilino]Ethyl Methanesulfonate [Ib-12P]
[1]; 20% of MTD
  Log kill, cmpd after radiation: 1.65 ± 0.19
[1]; 75% of MTD
  Log kill, cmpd after radiation: ≧3.38 ± 0.28
  Log kill, cmpd only, Mean ± sem: 1.32 ± 0.30

## 2-[(2-Chloroethyl)-2,4-Dinitro-3-[[[3-(Phosphonooxy)Propyl]Amino]-Carbonyl]Anilino]Ethyl Methanesulfonate [Ic-6P]
[1]; 20% of MTD
  Log kill, cmpd after radiation: 1.64 ± 0.30
[1]; 75% of MTD
  Log kill, cmpd after radiation: ≧2.62 ± 0.17
  Log kill, cmpd only, Mean ± sem: 1.11 ± 0.20

## 2-[(2-Chloroethyl)-2,4-Dinitro-6-[[[2-(Phosphonooxy)Ethyl]amino]-Carbonyl]Anilino]Ethyl Methanesulfonate [Ib-2mP]
[1]; 20% of MTD
  Log kill, cmpd after radiation: 2.56 ± 0.37
[1]; 75% of MTD
  Log kill, cmpd after radiation: ≧3.47 ± 0.17
  Log kill, cmpd only, Mean ± sem: 2.47 ± 0.08

## 2-[(2-Iodoethyl)-2,4-Dinitro-3-[[[3-(Phosphonooxy)Propyl]Amino]-Carbonyl]Anilino]Ethyl Methanesulfonate [Ic-15P]
[1]; 20% of MTD
  Log kill, cmpd after radiation: 1.81 ± 0.23
[1]; 75% of MTD
  Log kill, cmpd after radiation: 2.80 ± 0.40
  Log kill, cmpd only, Mean ± sem: 2.27 ± 0.17

## 2-[(2-Iodoethyl)-2,4-Dinitro-6-({[2-(Phosphonooxy)Ethyl]Amino}Carbonyl)-Anilino]Ethyl Methanesulfonate [Ib-15P]
[1]; 20% of MTD
  Log kill, cmpd after radiation: 1.74 ± 0.23
[1]; 75% of MTD
  Log kill, cmpd after radiation: ≧3.27 ± 0.13
  Log kill, cmpd only, Mean ± sem: 2.24 ± 0.15

## 2-[Bis(2-Chloroethyl)Amino]-N-(6-Hydroxybexyl)-3,5-Dinitrobenzamide [IIb-6]
WiDr (NTR+ve)
  WiDr WT:NTR IC50 Ratio: 5
  pIC50: 4.57

## O=C(O)CCCc1ccc(N(CCCl)CCCl)cc1 [Chlorambucil, reference compound]
In vivo
  MTD: 237 µmol/kg
[1]
  Activity against hypoxic cells: lacked activity
[1]; 75% of MTD
  Log kill, cmpd only, Mean ± sem: 0.11 ± 0.04

## O=P1(N(CCCl)CCCl)NCCCO1 (centres unmarked) [Cyclophosphamide, reference compound]
In vivo
  MTD: 750 µmol/kg
[1]
  Activity against hypoxic cells: lacked activity
